According to ChEMBL document CHEMBL4376821, “Recent Developments in Therapeutic Peptides for the Glucagon-like Peptide 1 and 2 Receptors” (J Med Chem, 2020):
Values belong to the compound of their own block, whether it stands above or below them. Non-standard residues stand in square brackets, D forms with d. Residues, ends and D or L forms follow the SMILES beside them. *: point of attachment. Palmitoyl = CCCCCCCCCCCCCCCC(=O)*; Nle = CCCC[C@H](N)C(=O)O

Tests used:
[1] = Half life in human plasma; format: ADME, cell-free
[2] = target: T1, Glucagon-like peptide 2 receptor (Homo sapiens, UniProt O95838); test: Agonist activity at human GLP-2 receptor expressed in CHO-K1 cells assessed as cAMP induction by FRET assay; format: functional, cell-based
T1 sequence (O95838 whole entry): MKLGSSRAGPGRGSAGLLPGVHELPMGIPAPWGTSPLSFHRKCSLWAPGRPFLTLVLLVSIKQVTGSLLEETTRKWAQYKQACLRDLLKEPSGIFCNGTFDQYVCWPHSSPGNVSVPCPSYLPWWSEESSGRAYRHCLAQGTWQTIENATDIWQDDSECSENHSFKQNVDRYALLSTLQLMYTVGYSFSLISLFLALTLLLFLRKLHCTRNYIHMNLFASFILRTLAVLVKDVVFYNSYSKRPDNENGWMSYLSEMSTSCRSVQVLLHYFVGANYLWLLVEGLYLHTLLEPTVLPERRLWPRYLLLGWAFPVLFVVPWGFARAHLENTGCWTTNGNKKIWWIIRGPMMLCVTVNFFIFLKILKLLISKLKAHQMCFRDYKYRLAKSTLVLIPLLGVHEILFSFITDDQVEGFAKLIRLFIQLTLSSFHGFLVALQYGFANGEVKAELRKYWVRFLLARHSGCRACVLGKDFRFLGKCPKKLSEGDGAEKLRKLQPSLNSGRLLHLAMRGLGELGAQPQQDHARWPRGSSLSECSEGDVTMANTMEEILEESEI

[3] = Half life in C57BL/6J mouse at 800 nmol/kg, sc measured up to 24 hrs by LC-MS/MS analysis; format: ADME, organism-based; conditions: in vivo
[4] = target: Glucagon-like peptide 1 receptor (Homo sapiens, UniProt P43220); test: Agonist activity at human GLP-1 receptor expressed in CHO-K1 cells assessed as cAMP induction by FRET assay; format: functional, cell-based
Chain of Glucagon-like peptide 1 receptor (P43220 whole entry): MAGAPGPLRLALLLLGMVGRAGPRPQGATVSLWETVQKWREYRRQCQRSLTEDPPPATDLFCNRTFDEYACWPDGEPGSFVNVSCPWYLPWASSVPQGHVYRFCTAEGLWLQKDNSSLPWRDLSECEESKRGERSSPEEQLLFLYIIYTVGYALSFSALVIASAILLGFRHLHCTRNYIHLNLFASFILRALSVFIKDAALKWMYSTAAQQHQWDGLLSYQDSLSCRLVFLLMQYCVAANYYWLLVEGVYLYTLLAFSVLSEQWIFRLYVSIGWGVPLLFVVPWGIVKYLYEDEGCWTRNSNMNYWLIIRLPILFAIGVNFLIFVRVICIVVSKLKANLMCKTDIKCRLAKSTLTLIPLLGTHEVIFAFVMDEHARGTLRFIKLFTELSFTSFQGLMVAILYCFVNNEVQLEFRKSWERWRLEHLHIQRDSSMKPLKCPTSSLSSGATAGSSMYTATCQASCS

[5] = Half-life in Yucatan mini-pig at 0.15 mg, sc; format: ADME, Sus scrofa domesticus; conditions: in vivo
[6] = Terminal half life in cynomolgus monkey at 0.25 mg/kg, sc; format: ADME, organism-based, Macaca fascicularis; conditions: in vivo, read-out: beta t1/2
[7] = Clearance in Sprague-Dawley rat at 0.2 mg/kg, iv; format: ADME, organism-based; conditions: in vivo
[8] = Half life in human at 15 mg, sc qd measured on day 8 by liquid chromatography/tandem mass spectrometry method; format: ADME, organism-based; conditions: in vivo
[9] = Half life in human; format: ADME
Homo sapiens = species: Homo sapiens; test: Induction of plasma citrulline level in human; format: functional
[10] = Half life in human plasma at 0.5 mg for 4 weeks followed by 0.5 mg for 4 weeks and subsequently 1 mg for weeks administered subcutaneously once weekly and measured up to 840 hrs post last dose by LC-MS/MS analysis; format: ADME; conditions: sc

half-life [1]: < 2 min
Compound: CC[C@H](C)[C@H](NC(=O)[C@H](Cc1ccccc1)NC(=O)[C@H](CCC(=O)O)NC(=O)[C@H](CCCCN)NC(=O)[C@H](C)NC(=O)[C@H](C)NC(=O)[C@H](CCC(N)=O)NC(=O)CNC(=O)[C@H](CCC(=O)O)NC(=O)[C@H](CC(C)C)NC(=O)[C@H](Cc1ccc(O)cc1)NC(=O)[C@H](CO)NC(=O)[C@H](CO)NC(=O)[C@@H](NC(=O)[C@H](CC(=O)O)NC(=O)[C@H](CO)NC(=O)[C@@H](NC(=O)[C@H](Cc1ccccc1)NC(=O)[C@@H](NC(=O)CNC(=O)[C@H](CCC(=O)O)NC(=O)[C@H](C)NC(=O)[C@@H](N)Cc1cnc[nH]1)[C@@H](C)O)[C@@H](C)O)C(C)C)C(=O)N[C@@H](C)C(=O)N[C@@H](Cc1c[nH]c2ccccc12)C(=O)N[C@@H](CC(C)C)C(=O)N[C@H](C(=O)N[C@@H](CCCCN)C(=O)NCC(=O)N[C@@H](CCCNC(=N)N)C(=O)O)C(C)C

EC50 [2]: 1 nM | half-life [3]: 2.7 h | EC50 [4]: 0.17 nM
Compound: CCCCCCCCCCCCCCCC(=O)NCCCC[C@H](NC(=O)[C@H](Cc1ccc(O)cc1)NC(=O)[C@@H](NC(=O)[C@H](CO)NC(=O)[C@H](CC(C)C)NC(=O)[C@H](CCC(=O)O)NC(=O)[C@H](CO)NC(=O)[C@@H](NC(=O)[C@H](Cc1ccccc1)NC(=O)[C@H](CO)NC(=O)CNC(=O)[C@H](CC(=O)O)NC(=O)CNC(=O)[C@@H](N)Cc1cnc[nH]1)[C@@H](C)O)[C@@H](C)O)C(=O)N[C@@H](CC(=O)O)C(=O)N[C@@H](C)C(=O)N[C@@H](CC(C)C)C(=O)N[C@@H](C)C(=O)N[C@@H](C)C(=O)N[C@@H](CCCNC(=N)N)C(=O)N[C@@H](CC(=O)O)C(=O)N[C@@H](Cc1ccccc1)C(=O)N[C@H](C(=O)N[C@@H](C)C(=O)N[C@@H](Cc1c[nH]c2ccccc12)C(=O)N[C@@H](CC(C)C)C(=O)N[C@H](C(=O)N[C@@H](CCC(N)=O)C(=O)N[C@H](C(=O)N[C@@H](CCCCN)C(=O)N[C@H](C(=O)N[C@H](C(=O)N[C@@H](CC(=O)O)C(N)=O)[C@@H](C)O)[C@@H](C)CC)[C@@H](C)O)[C@@H](C)CC)[C@@H](C)CC (H-HGDGSFTSELSTYK(Palmitoyl)DALAARDFIAWLIQTKITD-NH2)

half-life [5]: > 30 h | half-life [6]: > 30 h | clearance [7]: < 0.3 mL/min/kg
Compound: CCCC[C@H](NC(=O)[C@H](CCC(=O)O)NC(=O)[C@H](CC(=O)O)NC(=O)[C@H](CO)NC(=O)[C@H](Cc1ccccc1)NC(=O)[C@H](CO)NC(=O)CNC(=O)[C@H](CC(=O)O)NC(=O)CNC(=O)[C@@H](N)Cc1cnc[nH]1)C(=O)N[C@H](Cc1ccccc1)C(=O)N[C@H](C(=O)N[C@H](C(=O)N[C@@H](CC(C)C)C(=O)N[C@@H](CC(=O)O)C(=O)N[C@@H](CC(C)C)C(=O)N[C@@H](CC(C)C)C(=O)N[C@@H](C)C(=O)N[C@@H](C)C(=O)N[C@@H](CCCNC(=N)N)C(=O)N[C@@H](CC(=O)O)C(=O)N[C@@H](Cc1ccccc1)C(=O)N[C@H](C(=O)N[C@@H](CC(N)=O)C(=O)N[C@@H](Cc1c[nH]c2ccccc12)C(=O)N[C@@H](CC(C)C)C(=O)N[C@H](C(=O)N[C@@H](CCC(N)=O)C(=O)N[C@H](C(=O)N[C@@H](CCCCN)C(=O)N[C@H](C(=O)N[C@H](C(=O)N[C@@H](CC(=O)O)C(N)=O)[C@@H](C)O)[C@@H](C)CC)[C@@H](C)O)[C@@H](C)CC)[C@@H](C)CC)[C@@H](C)CC)[C@@H](C)O [FE 203799] (H-HGDGSFSDE[Nle][dF]TILDLLAARDFINWLIQTKITD-NH2)

half-life [8]: 2 h
Compound: CC[C@H](C)[C@H](NC(=O)[C@H](Cc1ccccc1)NC(=O)[C@H](CC(=O)O)NC(=O)[C@H](CCCNC(=N)N)NC(=O)[C@H](C)NC(=O)[C@H](C)NC(=O)[C@H](CC(C)C)NC(=O)[C@H](CC(N)=O)NC(=O)[C@H](CC(=O)O)NC(=O)[C@H](CC(C)C)NC(=O)[C@@H](NC(=O)[C@@H](NC(=O)[C@H](CC(N)=O)NC(=O)[C@H](CCSC)NC(=O)[C@H](CCC(=O)O)NC(=O)[C@H](CC(=O)O)NC(=O)[C@H](CO)NC(=O)[C@H](Cc1ccccc1)NC(=O)[C@H](CO)NC(=O)CNC(=O)[C@H](CC(=O)O)NC(=O)CNC(=O)[C@@H](N)Cc1c[nH]cn1)[C@@H](C)O)[C@@H](C)CC)C(=O)N[C@@H](CC(N)=O)C(=O)N[C@@H](Cc1c[nH]c2ccccc12)C(=O)N[C@@H](CC(C)C)C(=O)N[C@H](C(=O)N[C@@H](CCC(N)=O)C(=O)N[C@H](C(=O)N[C@@H](CCCCN)C(=O)N[C@H](C(=O)N[C@H](C(=O)N[C@@H](CC(=O)O)C(=O)O)[C@@H](C)O)[C@@H](C)CC)[C@@H](C)O)[C@@H](C)CC [TEDUGLUTIDE]

EC50 [2]: 0.09 nM | half-life [3]: 0.9 h | EC50 [4]: 0.07 nM
Compound: H-HGDGSFTSELSTYLDALAARDFIAWLIQTKITD-NH2

half-life [9]: 50 h
Compound: H-HGEGTFSSELATILDALAARDFIAWLIATKITDKKKKKK-NH2
Activity (Homo sapiens): <=86%

t1/2 [10]: 165 h
Compound: SEMAGLUTIDE
